Experimental data: the supplement of paper PMC10307832

Legend:
Assay in all cases: relative viability (nuclei count vs DMSO), 5 days (fraction); higher = more cells survive
Imatinib + Lapatinib = compound: Cc1ccc(NC(=O)c2ccc(CN3CCN(C)CC3)cc2)cc1Nc1nccc(-c2cccnc2)n1 [Imatinib] + CS(=O)(=O)CCNCc1ccc(-c2ccc3ncnc(Nc4ccc(OCc5cccc(F)c5)c(Cl)c4)c3c2)o1 [Lapatinib] (partner 2 µM)
Summary of the method: (§1)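 Cells from lung cancer lines were seeded into 1536-well plates and, one day later, dosed by pin tool. Treatments were either a single drug or a fixed dose of an anchor drug with five library-drug doses (not always all listed) in √10 steps. After 5 days, nuclei were stained in a one-step fixation (final 0.05% Triton X-100, 1% formaldehyde, 1 ug/ml Hoechst) and counted on 4× images, and relative viability is the treated-to-vehicle nuclei ratio, as the median of duplicate plates.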

Imatinib + Decitabine = compound: Cc1ccc(NC(=O)c2ccc(CN3CCN(C)CC3)cc2)cc1Nc1nccc(-c2cccnc2)n1 [Imatinib] + Nc1ncn([C@H]2C[C@H](O)[C@@H](CO)O2)c(=O)n1 [Decitabine] (partner 2 µM)
Summary of the method: as §1

Imatinib + OSI-027 = compound: Cc1ccc(NC(=O)c2ccc(CN3CCN(C)CC3)cc2)cc1Nc1nccc(-c2cccnc2)n1 [Imatinib] + COc1cccc2cc(-c3nc([C@H]4CC[C@H](C(=O)O)CC4)n4ncnc(N)c34)[nH]c12 [OSI-027] (partner 0.5 µM)
Summary of the method: as §1

Imatinib + Dasatinib = compound: Cc1ccc(NC(=O)c2ccc(CN3CCN(C)CC3)cc2)cc1Nc1nccc(-c2cccnc2)n1 [Imatinib] + Cc1nc(Nc2ncc(C(=O)Nc3c(C)cccc3Cl)s2)cc(N2CCN(CCO)CC2)n1 [Dasatinib] (partner 0.075 µM)
Summary of the method: as §1

Cell Line | relative viability (Imatinib + Lapatinib; first compound 0.02 µM) | relative viability (Imatinib + Lapatinib; first compound 0.06325 µM) | relative viability (Imatinib + Lapatinib; first compound 0.2 µM) | relative viability (Imatinib + Lapatinib; first compound 0.6325 µM) | relative viability (Imatinib + Lapatinib; first compound 2 µM) | relative viability (Imatinib + Decitabine; first compound 0.2 µM) | relative viability (Imatinib + Decitabine; first compound 0.6325 µM) | relative viability (Imatinib + Decitabine; first compound 2 µM) | relative viability (Imatinib + OSI-027; first compound 0.02 µM) | relative viability (Imatinib + OSI-027; first compound 0.06325 µM) | relative viability (Imatinib + OSI-027; first compound 0.2 µM) | relative viability (Imatinib + OSI-027; first compound 0.6325 µM) | relative viability (Imatinib + OSI-027; first compound 2 µM) | relative viability (Imatinib + Dasatinib; first compound 0.02 µM) | relative viability (Imatinib + Dasatinib; first compound 0.2 µM) | relative viability (Imatinib + Dasatinib; first compound 0.6325 µM) | relative viability (Imatinib + Dasatinib; first compound 2 µM) | relative viability (Imatinib + Decitabine; first compound 0.02 µM) | relative viability (Imatinib + Decitabine; first compound 0.06325 µM) | relative viability (Imatinib + Dasatinib; first compound 0.06325 µM)
EBC-1 | 0.182 | 0.187 | 0.216 | 0.195 | 0.168 |  |  |  |  |  |  |  |  |  |  |  |  |  |  | 
NCI-H727 | 0.626 | 0.637 | 0.84 | 0.769 | 0.801 | 0.904 | 0.84 | 0.808 | 0.455 | 0.476 | 0.519 | 0.773 | 0.551 | 0.433 | 0.331 | 0.234 | 0.463 |  |  | 
Calu-6 | 1.24 | 1.23 | 1.27 | 1.16 | 1.13 |  |  |  |  |  |  |  |  |  |  |  |  |  |  | 
LOU-NH91 | 0.793 | 0.775 | 0.792 | 0.765 | 0.766 | 0.795 | 0.813 | 0.767 | 0.759 | 0.708 | 0.745 | 0.699 | 0.658 | 0.569 | 0.607 | 0.567 | 0.56 | 0.793 | 0.814 | 0.581
NCI-H1993 |  | 0.872 | 0.774 | 0.809 | 0.698 | 0.662 | 0.643 | 0.528 | 0.538 | 0.491 | 0.617 | 0.543 | 0.625 | 0.678 | 0.573 | 0.522 | 0.521 | 0.629 | 0.718 | 0.564
NCI-H322M | 0.613 | 0.61 | 0.656 | 0.534 | 0.63 | 0.661 | 0.655 | 0.756 | 0.624 | 0.544 | 0.553 | 0.522 | 0.52 | 0.245 | 0.248 | 0.237 | 0.253 | 0.751 | 0.692 | 0.259
HCC-44 | 1.13 | 1.15 |  | 0.991 | 0.934 | 0.954 | 0.971 | 0.899 | 0.484 | 0.422 | 0.437 | 0.466 | 0.461 |  |  |  |  | 0.967 |  | 
NCI-H1648 |  |  |  |  |  | 0.448 | 0.393 | 0.456 | 0.253 | 0.266 | 0.243 |  | 0.237 |  |  |  |  | 0.442 | 0.478 | 
ChaGo-K-1 |  |  |  |  |  | 0.534 | 0.503 | 0.503 | 0.444 | 0.511 | 0.538 | 0.56 | 0.491 | 0.58 | 0.522 | 0.515 | 0.579 | 0.525 |  | 0.51
LCLC-103H |  |  |  |  |  | 0.767 | 0.74 | 0.754 | 0.453 | 0.375 | 0.548 | 0.415 | 0.433 | 0.637 | 0.471 | 0.471 | 0.388 | 0.717 | 0.741 | 0.436
NCI-H441 |  |  |  |  |  | 0.249 | 0.26 | 0.268 | 0.675 | 0.561 | 0.632 | 0.581 | 0.563 | 0.713 | 0.693 | 0.745 | 0.546 | 0.252 | 0.234 | 0.619
SW 900 |  |  |  |  |  | 0.499 | 0.468 | 0.411 | 0.564 | 0.397 | 0.548 | 0.583 | 0.496 | 0.552 | 0.641 | 0.48 | 0.567 | 0.37 | 0.467 | 0.412
NCI-H838 |  |  |  |  |  | 0.469 | 0.488 | 0.424 | 0.407 | 0.389 | 0.406 | 0.407 | 0.421 | 0.268 | 0.3 | 0.297 | 0.358 | 0.464 | 0.497 | 0.307
NCI-H1299 | 0.999 | 1 | 0.988 | 0.956 | 0.988 |  |  |  |  |  |  |  |  |  |  |  |  |  |  | 
NCI-H1666 | 0.679 | 0.811 | 0.565 | 0.748 | 0.844 | 0.779 | 0.796 | 0.727 |  |  |  |  |  | 0.83 | 0.825 | 0.792 | 0.697 | 0.699 | 0.716 | 0.838
NCI-H2023 |  |  |  |  |  | 0.24 | 0.22 | 0.223 | 0.524 | 0.303 | 0.426 | 0.314 | 0.334 | 0.751 | 0.565 | 0.591 | 0.509 | 0.228 | 0.252 | 0.33
NCI-H1563 | 1.01 | 0.699 | 0.98 | 0.869 |  |  |  |  | 0.825 | 0.803 | 0.774 | 0.743 | 0.731 | 0.458 | 0.457 | 0.421 | 0.448 |  |  | 0.523
IA-LM | 1.01 | 1.23 | 0.656 | 1.31 | 0.719 |  |  |  |  |  |  |  |  |  |  |  |  |  |  | 
NCI-H1703 | 1.01 | 1.1 | 0.439 | 0.276 | 0.281 |  |  |  |  |  |  |  |  |  |  |  |  |  |  | 
NCI-H2342 |  |  |  |  |  | 0.779 | 0.679 | 0.71 | 0.667 | 0.539 | 0.636 | 0.596 | 0.665 | 0.289 | 0.321 | 0.321 | 0.316 | 0.745 | 0.713 | 0.326
NCI-H2228 | 1.31 | 1.02 | 1.03 | 1.01 | 0.843 |  |  |  | 0.755 |  | 0.489 | 0.423 | 0.478 | 0.621 | 0.464 | 0.424 | 0.55 |  |  | 
CAL-12T | 0.631 | 0.609 | 0.938 | 0.705 | 0.667 |  |  |  | 0.714 |  | 0.605 | 0.702 | 0.471 | 0.625 | 0.612 | 0.503 | 0.51 |  |  | 
